Results from patent US8415469B2, “Compounds and methods for kinase modulation, and indications therefor” (Plexxikon Inc., priority 2005, dated 2013).
pIC50: −log10 of the molar value. Read-outs that look alike come from different tables or passages of the source.

Experiments:
Format in all cases: biochemical
B-Raf = target: T1, B-Raf (Homo sapiens, UniProt P15056); assay: AlphaScreen kinase assay, B-Raf
T1 construct: purchased Upstate Biotechnology
Method: AlphaScreen assays were done using compounds dissolved in DMSO to a concentration of 20 mM. The compounds were diluted accordingly to the desired final concentrations in each sample well, using 1:3 serial dilution for a total of 8 concentration points. Plates were prepared such that each kinase reaction is 20 μl in 1× kinase buffer, 5% DMSO and 10 μM ATP. After incubation of the kinase reaction for 1 hour at room temperature, 5 μl of donor beads in stop buffer (50 mM EDTA in 1× kinase buffer) was added, the sample was mixed and incubated for 20 minutes at room temperature before adding 5 μl of acceptor beads in stop buffer. The samples were incubated for 60 minutes at room temperature and the signal per well was read on AlphaQuest reader.

Ret = target: T2, Ret (Homo sapiens, UniProt P07949); assay: AlphaScreen kinase assay, Ret; conditions: read-out: IC50, activity toward kinase Ret
T2 construct: P1378.pET-SF BI-PTP RET H661-R1012 HIS; made in house
T2 sequence (P07949 with tags, fused parts or gaps): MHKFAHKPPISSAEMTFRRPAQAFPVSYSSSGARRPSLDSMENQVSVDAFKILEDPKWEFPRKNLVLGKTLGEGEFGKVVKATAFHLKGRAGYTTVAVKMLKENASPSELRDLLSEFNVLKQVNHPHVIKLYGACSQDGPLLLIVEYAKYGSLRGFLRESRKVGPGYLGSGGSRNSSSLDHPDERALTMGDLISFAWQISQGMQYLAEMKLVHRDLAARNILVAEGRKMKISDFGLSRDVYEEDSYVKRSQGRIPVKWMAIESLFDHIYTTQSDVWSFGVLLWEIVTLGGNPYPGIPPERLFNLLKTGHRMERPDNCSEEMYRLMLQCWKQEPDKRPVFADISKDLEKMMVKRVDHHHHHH

Stk6 = target: T3, Stk6 (Homo sapiens, UniProt O14965); assay: Z'-Lyte FRET kinase assay (Invitrogen), Stk6; conditions: read-out: IC50, activity toward kinase Stk6
T3 construct: purchased Invitrogen (Carlsbad, Calif.), screening service
T3 sequence (O14965 1-403): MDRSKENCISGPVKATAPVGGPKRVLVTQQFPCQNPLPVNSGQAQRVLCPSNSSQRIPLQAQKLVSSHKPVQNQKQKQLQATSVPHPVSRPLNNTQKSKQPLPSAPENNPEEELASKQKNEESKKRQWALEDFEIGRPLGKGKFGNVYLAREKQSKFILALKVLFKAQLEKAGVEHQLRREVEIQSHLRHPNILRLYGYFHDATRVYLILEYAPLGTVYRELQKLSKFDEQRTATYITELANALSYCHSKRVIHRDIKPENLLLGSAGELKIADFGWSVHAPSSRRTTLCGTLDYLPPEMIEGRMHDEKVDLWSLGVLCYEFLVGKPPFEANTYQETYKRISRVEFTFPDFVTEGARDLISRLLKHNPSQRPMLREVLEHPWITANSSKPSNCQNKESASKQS

Kdr = target: T4, Kdr (Homo sapiens, UniProt P35968); assay: Z'-Lyte FRET kinase assay (Invitrogen), Kdr; conditions: read-out: IC50, activity toward kinase Kdr
T4 construct: purchased Invitrogen (assay run by Invitrogen)
T4 sequence (P35968 20-1356): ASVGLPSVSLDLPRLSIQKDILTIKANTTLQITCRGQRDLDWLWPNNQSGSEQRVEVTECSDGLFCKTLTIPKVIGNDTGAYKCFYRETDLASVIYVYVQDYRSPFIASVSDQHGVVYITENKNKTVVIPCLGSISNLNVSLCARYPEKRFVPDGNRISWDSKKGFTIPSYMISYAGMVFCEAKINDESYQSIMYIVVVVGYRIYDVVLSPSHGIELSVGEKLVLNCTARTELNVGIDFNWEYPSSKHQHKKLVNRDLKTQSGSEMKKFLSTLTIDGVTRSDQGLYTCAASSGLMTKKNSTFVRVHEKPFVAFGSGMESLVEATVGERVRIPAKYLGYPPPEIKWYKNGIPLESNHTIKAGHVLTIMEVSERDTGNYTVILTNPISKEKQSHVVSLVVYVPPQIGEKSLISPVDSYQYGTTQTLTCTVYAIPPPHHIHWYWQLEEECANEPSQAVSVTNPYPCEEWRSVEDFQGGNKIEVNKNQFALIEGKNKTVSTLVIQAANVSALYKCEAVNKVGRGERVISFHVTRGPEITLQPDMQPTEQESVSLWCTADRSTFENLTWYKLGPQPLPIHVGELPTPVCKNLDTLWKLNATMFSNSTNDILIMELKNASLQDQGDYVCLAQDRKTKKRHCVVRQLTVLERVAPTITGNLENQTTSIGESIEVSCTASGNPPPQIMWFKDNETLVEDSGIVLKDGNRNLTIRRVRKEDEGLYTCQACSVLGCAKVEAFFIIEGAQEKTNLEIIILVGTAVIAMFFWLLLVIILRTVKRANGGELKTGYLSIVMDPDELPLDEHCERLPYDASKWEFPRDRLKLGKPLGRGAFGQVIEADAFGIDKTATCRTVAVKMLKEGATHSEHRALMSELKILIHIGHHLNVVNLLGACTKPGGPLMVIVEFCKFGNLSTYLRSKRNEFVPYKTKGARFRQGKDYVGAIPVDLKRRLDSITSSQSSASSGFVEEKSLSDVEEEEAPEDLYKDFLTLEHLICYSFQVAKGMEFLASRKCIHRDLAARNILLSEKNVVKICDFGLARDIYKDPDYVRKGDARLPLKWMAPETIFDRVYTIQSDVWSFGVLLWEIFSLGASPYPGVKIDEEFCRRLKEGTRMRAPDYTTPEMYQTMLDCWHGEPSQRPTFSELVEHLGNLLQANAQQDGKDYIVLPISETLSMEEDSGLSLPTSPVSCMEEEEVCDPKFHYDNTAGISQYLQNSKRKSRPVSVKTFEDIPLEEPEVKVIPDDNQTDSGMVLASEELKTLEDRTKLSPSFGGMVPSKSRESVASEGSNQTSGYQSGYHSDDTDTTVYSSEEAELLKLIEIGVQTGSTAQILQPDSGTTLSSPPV

Kit = target: T5, Kit (Homo sapiens, UniProt P10721); assay: AlphaScreen kinase assay, Kit; conditions: read-out: IC50, activity toward kinase Kit
T5 construct: P1332.N6 BI PTP KIT M552-K948-X COD; His6 (N); made in house; host or cells: E. coli (PTP1B co-expressed)
T5 sequence (P10721 with tags, fused parts or gaps): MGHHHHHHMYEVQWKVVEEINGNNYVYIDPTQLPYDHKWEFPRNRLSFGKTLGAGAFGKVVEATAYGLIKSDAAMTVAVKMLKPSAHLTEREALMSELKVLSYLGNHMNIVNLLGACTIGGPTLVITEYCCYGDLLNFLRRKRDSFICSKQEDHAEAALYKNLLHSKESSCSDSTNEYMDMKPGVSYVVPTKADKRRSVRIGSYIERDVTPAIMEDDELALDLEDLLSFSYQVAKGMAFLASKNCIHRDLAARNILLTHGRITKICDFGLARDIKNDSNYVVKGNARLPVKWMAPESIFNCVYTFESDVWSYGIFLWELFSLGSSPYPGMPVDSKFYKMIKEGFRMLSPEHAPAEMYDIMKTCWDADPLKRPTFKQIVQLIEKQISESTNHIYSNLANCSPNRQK

c-Raf-1 = target: T6, c-Raf-1 (Homo sapiens, UniProt P04049); assay: AlphaScreen kinase assay, c-Raf-1; conditions: read-out: IC50, activity toward kinase c-Raf-1
T6 construct: purchased Upstate Biotechnology

MAP4K4 = MAP4K4 (Homo sapiens, UniProt O95819); assay: AlphaScreen kinase assay, MAP4K4; conditions: read-out: IC50, activity toward kinase MAP4K4
Jnk3 = target: T7, Jnk3 (Homo sapiens, UniProt P53779); assay: AlphaScreen kinase assay, Jnk3; conditions: read-out: IC50, activity toward kinase Jnk3
T7 construct: purchased Upstate Biotechnology
T7 sequence (P53779 whole entry): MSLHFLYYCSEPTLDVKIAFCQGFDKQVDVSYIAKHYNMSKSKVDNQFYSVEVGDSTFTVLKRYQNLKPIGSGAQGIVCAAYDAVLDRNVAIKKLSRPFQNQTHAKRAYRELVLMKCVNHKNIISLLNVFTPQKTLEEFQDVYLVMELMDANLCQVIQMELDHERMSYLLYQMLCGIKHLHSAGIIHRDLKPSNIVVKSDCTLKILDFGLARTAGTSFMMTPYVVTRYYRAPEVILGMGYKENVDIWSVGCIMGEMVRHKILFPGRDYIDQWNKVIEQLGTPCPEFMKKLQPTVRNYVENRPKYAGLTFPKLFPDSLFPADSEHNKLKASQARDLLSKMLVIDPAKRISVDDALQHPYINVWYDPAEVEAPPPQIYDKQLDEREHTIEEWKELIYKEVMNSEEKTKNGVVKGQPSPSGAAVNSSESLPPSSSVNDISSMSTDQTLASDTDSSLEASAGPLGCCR

B-Raf V600E = target: T8, B-Raf V600E (Homo sapiens, UniProt P15056, V600E); assay: AlphaScreen kinase assay, B-Raf V600E
T8 construct: P4254. pFastBacBD-CDC37 BRAF D437-K722-X, V600E; His6 with pFastBac HT leader (TEV site) (N); made in house; host or cells: Sf9 (baculovirus; chaperone CDC37 co-expressed)
T8 sequence (P15056 with tags, fused parts or gaps V600E): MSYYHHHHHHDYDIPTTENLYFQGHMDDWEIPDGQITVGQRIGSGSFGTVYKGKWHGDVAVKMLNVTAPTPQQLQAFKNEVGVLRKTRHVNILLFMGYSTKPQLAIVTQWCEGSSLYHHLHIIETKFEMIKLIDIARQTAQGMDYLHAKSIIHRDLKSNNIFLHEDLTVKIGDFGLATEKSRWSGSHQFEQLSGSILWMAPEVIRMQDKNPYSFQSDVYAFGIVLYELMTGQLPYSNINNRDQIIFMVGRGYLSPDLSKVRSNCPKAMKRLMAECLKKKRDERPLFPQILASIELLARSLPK

Pyk2 = target: T9, Pyk2 (Homo sapiens, UniProt Q14289); assay: AlphaScreen kinase assay, Pyk2; conditions: read-out: IC50, activity toward kinase Pyk2
T9 construct: purchased Upstate Biotechnology

Fak = target: T10, Fak (Homo sapiens, UniProt Q05397); assay: AlphaScreen kinase assay, Fak; conditions: read-out: IC50, activity toward kinase Fak
T10 construct: P1358.pFastBacHtb FAK S411-Q686-X; His6 with pFastBacHTb leader (TEV site) (N); made in house; host or cells: Sf9 (baculovirus)
T10 sequence (Q05397 411-686): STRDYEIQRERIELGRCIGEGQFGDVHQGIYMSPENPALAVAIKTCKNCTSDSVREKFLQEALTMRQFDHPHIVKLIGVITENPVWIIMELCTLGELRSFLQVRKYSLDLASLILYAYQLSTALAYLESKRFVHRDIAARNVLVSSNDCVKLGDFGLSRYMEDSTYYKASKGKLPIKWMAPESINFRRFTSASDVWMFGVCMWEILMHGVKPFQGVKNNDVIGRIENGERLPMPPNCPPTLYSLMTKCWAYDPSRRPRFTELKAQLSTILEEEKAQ

Src = target: T11, Src (Homo sapiens, UniProt P12931); assay: AlphaScreen kinase assay, Src; conditions: read-out: IC50, activity toward kinase Src
T11 construct: P1144. pET-N6 BI-PTP SRC V86-L536-X; made in house
T11 sequence (P12931 with tags, fused parts or gaps): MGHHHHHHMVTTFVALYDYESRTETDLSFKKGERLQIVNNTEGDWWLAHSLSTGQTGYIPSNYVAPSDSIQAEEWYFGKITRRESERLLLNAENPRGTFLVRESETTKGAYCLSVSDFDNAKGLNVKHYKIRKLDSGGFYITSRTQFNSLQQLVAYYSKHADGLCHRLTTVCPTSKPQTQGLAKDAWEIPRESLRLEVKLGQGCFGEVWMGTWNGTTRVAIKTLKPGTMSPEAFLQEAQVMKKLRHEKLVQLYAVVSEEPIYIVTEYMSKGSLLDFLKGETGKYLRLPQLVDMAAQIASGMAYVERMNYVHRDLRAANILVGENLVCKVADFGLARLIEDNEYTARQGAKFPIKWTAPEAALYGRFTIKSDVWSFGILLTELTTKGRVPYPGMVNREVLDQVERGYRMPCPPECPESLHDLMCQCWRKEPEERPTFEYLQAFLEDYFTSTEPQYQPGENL

Fms = target: T12, Fms (Homo sapiens, UniProt P07333); assay: AlphaScreen kinase assay, Fms; conditions: read-out: IC50, activity toward kinase Fms
T12 construct: purchased Upstate Biotechnology

Jnk2 = target: T13, Jnk2 (Homo sapiens, UniProt P45984); assay: AlphaScreen kinase assay, Jnk2; conditions: read-out: IC50, activity toward kinase Jnk2
T13 construct: purchased Roche Protein Expression Group (Indianapolis, IN)
Method in brief: (§1)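 Uses phospho-specific antibody on acceptor beads plus streptavidin donor beads capturing biotinylated peptide substrate; singlet oxygen from donor excites nearby acceptor. Inhibitors tested in 8-point, 1:3 titrations starting from 20 mM DMSO solutions.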

Jnk1 = target: T14, Jnk1 (Homo sapiens, UniProt P45983); assay: AlphaScreen kinase assay, Jnk1; conditions: read-out: IC50, activity toward kinase Jnk1
T14 construct: purchased Upstate Biotechnology

FGFR1 = target: T15, FGFR1 (Homo sapiens, UniProt P11362, C488A/C584S); assay: AlphaScreen kinase assay, FGFR1; conditions: read-out: IC50, activity toward kinase FGFR
T15 construct: P1351.pET N6 BI-PTP FGFR A458-E765-X C488A, C584S; made in house; host or cells: E. coli (PTP1B co-expressed)
T15 sequence (P11362 458-765 C488A/C584S): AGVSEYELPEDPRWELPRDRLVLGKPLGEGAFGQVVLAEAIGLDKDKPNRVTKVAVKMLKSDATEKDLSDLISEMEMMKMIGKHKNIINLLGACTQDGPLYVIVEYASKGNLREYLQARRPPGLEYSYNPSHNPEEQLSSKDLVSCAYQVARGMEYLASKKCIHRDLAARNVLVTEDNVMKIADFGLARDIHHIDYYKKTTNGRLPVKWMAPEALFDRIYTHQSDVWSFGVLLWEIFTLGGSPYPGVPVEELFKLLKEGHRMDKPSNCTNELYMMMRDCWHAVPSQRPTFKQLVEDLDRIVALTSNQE

Flt1 = target: T16, Flt1 (Homo sapiens, UniProt P17948); assay: AlphaScreen kinase assay, Flt1; conditions: read-out: IC50, activity toward kinase Flt1
T16 construct: P1826.pETN6 BI-PTP FLT1 M799-D1165-X WT; His6 (N); made in house; host or cells: E. coli (PTP1B co-expressed)
T16 sequence (P17948 with tags, fused parts or gaps): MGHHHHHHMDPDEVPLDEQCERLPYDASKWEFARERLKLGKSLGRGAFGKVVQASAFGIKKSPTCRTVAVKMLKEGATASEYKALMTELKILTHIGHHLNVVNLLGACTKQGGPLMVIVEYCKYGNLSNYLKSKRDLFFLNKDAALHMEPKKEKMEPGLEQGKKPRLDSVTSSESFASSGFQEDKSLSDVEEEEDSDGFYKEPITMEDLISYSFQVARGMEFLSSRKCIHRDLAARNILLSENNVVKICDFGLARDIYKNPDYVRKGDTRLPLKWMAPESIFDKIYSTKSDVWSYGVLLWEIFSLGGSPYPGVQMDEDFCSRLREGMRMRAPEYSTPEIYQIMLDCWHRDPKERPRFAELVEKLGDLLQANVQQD

Met = target: T17, Met (Homo sapiens, UniProt P08581); assay: AlphaScreen kinase assay, Met; conditions: read-out: IC50, activity toward kinase Met
T17 construct: P1818.pETN6 BI-PTP MET G1056-G1364-X WT; His6 (N); made in house; host or cells: E. coli (PTP1B co-expressed)
T17 sequence (P08581 with tags, fused parts or gaps): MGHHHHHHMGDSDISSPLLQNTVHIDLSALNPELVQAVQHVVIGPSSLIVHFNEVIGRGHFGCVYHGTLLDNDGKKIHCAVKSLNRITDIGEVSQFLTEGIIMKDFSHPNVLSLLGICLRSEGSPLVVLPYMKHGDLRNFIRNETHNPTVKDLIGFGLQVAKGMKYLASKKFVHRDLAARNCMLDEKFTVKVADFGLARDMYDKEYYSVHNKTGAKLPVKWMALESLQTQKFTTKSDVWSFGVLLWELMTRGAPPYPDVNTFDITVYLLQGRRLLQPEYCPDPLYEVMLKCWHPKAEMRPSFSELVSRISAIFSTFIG
Excerpt: (§2) AlphaScreen assay was used to screen additional kinases. The assay is similarly dependent on the phosphorylation of a peptide substrate. In this assay, an antibody that recognizes phosphorylated substrate is bound to an acceptor bead. The peptide substrate is attached to biotin, which binds to a donor head that contains streptavidin. Thus phosphorylated substrate is bound by antibody and streptavidin, bringing the donor and acceptor heads into close proximity when kinase is not inhibited. The donor produces singlet oxygen which results in emission from the acceptor when they are in close proximity. Conversely, when kinase is inhibited, the donor and acceptor beads are not associated and the emission from the acceptor is reduced.
(§3) AlphaScreen assays were done using compounds dissolved in DMSO to a concentration of 20 mM. The compounds were diluted accordingly to the desired final concentrations in each sample well, using 1:3 serial dilution for a total of 8 concentration points.

Abl = target: T18, Abl (Homo sapiens, UniProt P00519); assay: AlphaScreen kinase assay, Abl; conditions: read-out: activity toward kinase Abl, IC50
T18 construct: P1121. pET-SPEC BI-PTP Abl G227-V515-X; His6 (N); made in house; host or cells: E. coli (PTP1B co-expressed)
T18 sequence (P00519 with tags, fused parts or gaps): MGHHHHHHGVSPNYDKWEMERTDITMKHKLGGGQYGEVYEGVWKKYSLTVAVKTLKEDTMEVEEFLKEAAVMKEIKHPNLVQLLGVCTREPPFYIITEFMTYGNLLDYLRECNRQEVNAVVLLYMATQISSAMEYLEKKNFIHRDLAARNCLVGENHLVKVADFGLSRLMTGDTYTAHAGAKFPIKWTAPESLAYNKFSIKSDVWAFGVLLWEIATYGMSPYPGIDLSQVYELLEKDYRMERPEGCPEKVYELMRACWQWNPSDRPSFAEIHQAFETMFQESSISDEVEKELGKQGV
Excerpt: as §2, §3

Zap70 = target: T19, Zap70 (Homo sapiens, UniProt P43403); assay: AlphaScreen kinase assay, Zap70; conditions: read-out: IC50, activity toward kinase Zap70
T19 construct: P1868.pFastBac1 ZAP70 D327-G606 HIS, WT; His7 (HHHHHHH) (C); made in house
T19 sequence (P43403 with tags, fused parts or gaps): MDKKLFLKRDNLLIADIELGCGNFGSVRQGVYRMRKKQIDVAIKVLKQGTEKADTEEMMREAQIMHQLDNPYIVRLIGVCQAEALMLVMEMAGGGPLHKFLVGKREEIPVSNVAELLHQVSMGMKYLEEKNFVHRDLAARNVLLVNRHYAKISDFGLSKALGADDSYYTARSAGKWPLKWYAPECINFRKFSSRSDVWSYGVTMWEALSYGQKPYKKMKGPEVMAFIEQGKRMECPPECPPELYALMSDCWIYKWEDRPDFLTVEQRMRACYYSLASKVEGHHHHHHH
Method in brief: as §1

Akt3 = Akt3 (Homo sapiens, UniProt Q9Y243); assay: AlphaScreen kinase assay, Akt3; conditions: read-out: IC50, activity toward kinase Akt3
Excerpt: as §2, §3

[1] = read-out: IC50, activity toward kinase B-Raf
[2] = read-out: IC50, activity toward kinase B-Raf V600E

Measured: pIC50

T1 sequence (P15056 whole entry): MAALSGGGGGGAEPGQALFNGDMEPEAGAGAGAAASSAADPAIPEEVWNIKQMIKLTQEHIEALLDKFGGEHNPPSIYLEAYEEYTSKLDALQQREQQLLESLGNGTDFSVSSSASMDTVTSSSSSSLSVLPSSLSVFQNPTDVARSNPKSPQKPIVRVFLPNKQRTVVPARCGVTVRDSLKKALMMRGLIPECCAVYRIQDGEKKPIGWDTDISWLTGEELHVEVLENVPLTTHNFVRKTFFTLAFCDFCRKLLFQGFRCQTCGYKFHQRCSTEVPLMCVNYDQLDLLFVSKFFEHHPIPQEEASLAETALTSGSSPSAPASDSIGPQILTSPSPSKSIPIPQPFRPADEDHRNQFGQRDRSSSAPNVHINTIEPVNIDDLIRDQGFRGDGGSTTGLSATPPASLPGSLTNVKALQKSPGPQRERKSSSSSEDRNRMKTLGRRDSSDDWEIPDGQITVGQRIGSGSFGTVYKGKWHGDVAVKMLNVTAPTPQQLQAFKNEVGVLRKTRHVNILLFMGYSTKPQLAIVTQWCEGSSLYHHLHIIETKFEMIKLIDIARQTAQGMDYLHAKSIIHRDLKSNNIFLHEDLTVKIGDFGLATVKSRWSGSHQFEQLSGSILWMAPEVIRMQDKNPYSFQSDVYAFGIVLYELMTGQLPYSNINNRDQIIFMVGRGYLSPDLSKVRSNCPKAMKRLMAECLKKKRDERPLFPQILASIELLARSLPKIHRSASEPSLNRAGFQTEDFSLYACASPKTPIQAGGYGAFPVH

COc1cccc(Cc2c[nH]c3ncc(-c4cccnc4)cc23)c1F [Compound P-0269, 3-(2-Fluoro-3-methoxy-benzyl)-5-pyridin-3-yl-1H-pyrrolo[2,3-b]pyridine]
≥ 5.00: B-Raf; [1] | Ret | Stk6 | Kdr | Kit | c-Raf-1 | MAP4K4 | Jnk3 | B-Raf V600E; [2] | Pyk2 | Fak | Src | Fms | Jnk2 | Jnk1 | FGFR1 | Flt1 | Met

S=C(NCc1cccnc1)NCc1c[nH]c2ncccc12 [Compound P-1012]
≥ 5.00: Abl | Met

CS(=O)(=O)CCNC(=O)c1ccc(S(=O)(=O)NCc2c[nH]c3ncccc23)cc1 [Compound P-0675]
≥ 5.00: Zap70 | Ret | Abl | Jnk3 | Fak | Met

NC(=O)c1cccc(-c2cnc3[nH]cc(C(=O)c4cc(O)ccc4F)c3c2)c1 [Compound P-0037, 3-[3-(2-Fluoro-5-hydroxy-benzoyl)-1H-pyrrolo[2,3-b]pyridin-5-yl]-benzamide]
≥ 5.00: B-Raf; [1] | Zap70 | Ret | Akt3 | Kit | c-Raf-1 | Jnk3 | B-Raf V600E; [2] | Fak | Src | Fms | Jnk1 | FGFR1 | Flt1 | Met

S=C(NCc1ccncc1)NCc1c[nH]c2ncccc12 [Compound P-0781]
≥ 5.00: Abl | Met

O=S(=O)(NCc1c[nH]c2ncccc12)c1ccsc1 [Compound P-0320]
≥ 5.00: Zap70 | Ret | Abl | Kdr | Jnk3 | B-Raf V600E; [2] | Pyk2 | Src | FGFR1 | Flt1 | Met

COc1cccc(Cc2c[nH]c3ncc(-c4ccc(N)cc4)cc23)c1 [Compound P-0140]
≥ 5.00: B-Raf | Ret | Stk6 | Abl | Kdr | Kit | B-Raf V600E | Jnk2 | Jnk1 | FGFR1 | Met
